Assay results reported in PubChem BioAssay AID260 (DTP/NCI, 2004).
Several values for one entry are separate records, joined by “and”; a condition that tells them apart may be missing. Equal values may be shown once. Toxic doses and inconclusive results are not listed.

Test system: CD2F1 mice, intracerebral L1210 leukemia, survival T/C
Assay: NCI In Vivo Anticancer Drug Screen. Data for tumor model L1210 Leukemia (intracerebral) in CD2F1 (CDF1) mice
Settings: higher = longer survival
Method: The antitumor activity of compounds was measured in mice bearing transplantable tumors. Survival or tumor size were measured and the results are expressed as the measurement made in the treated group (T) divided by the measurement made in the vehicle treated control group (C). The tumor model used in this assay is L1210 Leukemia (intracerebral) in CD2F1 (CDF1) mice

CN(C)N=Nc1cccc(C(N)=O)c1
T/C (endpoint: median survival time, dose: 10.0 mg/kg/injection, schedule: Q01DX005 (ip), vehicle: Klucel (hydroxypropylcellulose) (HPC)): 104 % of control and 112 % of control | T/C (endpoint: median survival time, dose: 20.0 mg/kg/injection, schedule: Q01DX005 (ip), vehicle: Klucel (hydroxypropylcellulose) (HPC)): 120 % of control and 115 % of control | T/C (endpoint: median survival time, dose: 80.0 mg/kg/injection, schedule: Q01DX005 (ip), vehicle: Klucel (hydroxypropylcellulose) (HPC)): 102 % of control and 110 % of control

O=P1(N(CCCl)CCCl)NCCCO1 (configuration not stated)
T/C (endpoint: median survival time, dose: 40.0 mg/kg/injection, schedule: Q01DX001 (ip), vehicle: saline): 100 % of control | T/C (endpoint: median survival time, dose: 80.0 mg/kg/injection, schedule: Q01DX001 (ip), vehicle: saline): 104 % of control | T/C (endpoint: median survival time, dose: 160.0 mg/kg/injection, schedule: Q01DX001 (ip), vehicle: saline): 112 % of control | T/C (endpoint: median survival time, dose: 320.0 mg/kg/injection, schedule: Q01DX001 (ip), vehicle: saline): 105 % of control

COc1cc([C@@H]2c3cc4c(cc3[C@@H](OC3OC5COC(C)OC5C(O)C3O)[C@H]3COC(=O)[C@H]23)OCO4)cc(OC)c1O (some centres not stated)
T/C (endpoint: median survival time, dose: 0.5 mg/kg/injection, schedule: Q01DX009 (ip), vehicle: saline): 103 % of control | T/C (endpoint: median survival time, dose: 1.0 mg/kg/injection, schedule: Q01DX009 (ip), vehicle: saline): 101 % of control | T/C (endpoint: median survival time, dose: 2.0 mg/kg/injection, schedule: Q01DX009 (ip), vehicle: saline): 94 % of control | T/C (endpoint: median survival time, dose: 4.0 mg/kg/injection, schedule: Q01DX009 (ip), vehicle: saline): 91 % of control | T/C (endpoint: median survival time, dose: 8.0 mg/kg/injection, schedule: Q01DX009 (ip), vehicle: saline): 102 % of control

Cc1c2ccncc2c(C)c2c1[nH]c1ccccc12
T/C (endpoint: mean survival time, dose: 10.0 mg/kg/injection, schedule: Q01DX009 (ip), vehicle: saline): 157 % of control | T/C (endpoint: mean survival time, dose: 20.0 mg/kg/injection, schedule: Q01DX009 (ip), vehicle: saline): 157 % of control

CC[n+]1c(-c2ccccc2)c2cc(N)ccc2c2ccc(N)cc21
T/C (endpoint: median survival time, dose: 12.0 mg/kg/injection, schedule: Q01DX005 (ip), vehicle: saline): 100 % of control | T/C (endpoint: median survival time, dose: 24.0 mg/kg/injection, schedule: Q01DX005 (ip), vehicle: saline): 104 % of control

NC(C/[N+]([O-])=N/O)C(=O)O (configuration not stated)
T/C (endpoint: median survival time, dose: 1.0 mg/kg/injection, schedule: Q01DX009 (ip), vehicle: saline with Tween-80): 98 % of control | T/C (endpoint: median survival time, dose: 2.0 mg/kg/injection, schedule: Q01DX009 (ip), vehicle: saline with Tween-80): 105 % of control | T/C (endpoint: median survival time, dose: 4.0 mg/kg/injection, schedule: Q01DX009 (ip), vehicle: saline with Tween-80): 101 % of control | T/C (endpoint: median survival time, dose: 8.0 mg/kg/injection, schedule: Q01DX009 (ip), vehicle: saline with Tween-80): 101 % of control | T/C (endpoint: median survival time, dose: 16.0 mg/kg/injection, schedule: Q01DX009 (ip), vehicle: saline with Tween-80): 102 % of control | T/C (endpoint: median survival time, dose: 32.0 mg/kg/injection, schedule: Q01DX009 (ip), vehicle: saline with Tween-80): 104 % of control | T/C (endpoint: median survival time, dose: 56.25 mg/kg/injection, schedule: Q01DX009 (ip), vehicle: saline): 115 % of control | T/C (endpoint: median survival time, dose: 100.0 mg/kg/injection, schedule: Q01DX009 (ip), vehicle: Klucel (hydroxypropylcellulose) (HPC)): 110 % of control and 112 % of control | T/C (endpoint: median survival time, dose: 112.5 mg/kg/injection, schedule: Q01DX009 (ip), vehicle: saline): 89 % of control | T/C (endpoint: median survival time, dose: 200.0 mg/kg/injection, schedule: Q01DX009 (ip), vehicle: Klucel (hydroxypropylcellulose) (HPC)): 86 % of control and 87 % of control | T/C (endpoint: median survival time, dose: 225.0 mg/kg/injection, schedule: Q01DX009 (ip), vehicle: saline): 89 % of control
